According to patent US5464834A, “N-substituted N'-heterobicyclic piperazines having pharmaceutical activity” (Adir et Compagnie, priority 1992, dated 1995):

How the values were obtained:
5HT1A receptors [1] = target: T1, 5HT1A receptors (Rattus norvegicus, UniProt P19327); assay: Drug discrimination (DD) 8-OH-DPAT; assay type: in vivo, rat (male Wistar); parameters: from tissue; host or cells: whole living male Wistar rats (endogenous receptor); conditions: for ED50: rat, sc, rats trained on 8-OH-DPAT 0.31 mg/kg
T1 sequence (P19327 1-422): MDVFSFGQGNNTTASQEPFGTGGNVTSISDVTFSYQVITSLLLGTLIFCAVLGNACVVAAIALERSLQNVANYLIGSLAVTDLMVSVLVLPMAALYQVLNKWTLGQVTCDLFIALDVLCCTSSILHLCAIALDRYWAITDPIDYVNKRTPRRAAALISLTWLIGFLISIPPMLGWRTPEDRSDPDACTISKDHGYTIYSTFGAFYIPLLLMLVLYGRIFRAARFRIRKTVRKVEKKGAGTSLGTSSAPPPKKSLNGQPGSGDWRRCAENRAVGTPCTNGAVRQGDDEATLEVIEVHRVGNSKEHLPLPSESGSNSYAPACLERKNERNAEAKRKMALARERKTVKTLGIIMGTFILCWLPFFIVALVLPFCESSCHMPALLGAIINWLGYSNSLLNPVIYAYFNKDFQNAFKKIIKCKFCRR
Method: (§1) The tests were carried out using male Wistar rats weighing 200 to 220 g having free access to their food and to their drinking water in standard cages.
Male rats are maintained at 85% of their normal body weight by means of food restriction. In soundproofed chambers the animals are trained to press a pedal to obtain food according to an FR10 procedure (Fixed Ratio 10; the food is supplied to the rat when it has pressed the lever 10 times).
Daily sessions of 15 minutes are preceded by an injection of solvent or of the training drug (0.31 mg/kg of 8-OH-DPAT, j.p.). The animal receives a pellet of food after pressing 10 times on the "solvent" or "drug" pedal according to the compound administered before the session.
After the learning period the animals are tested twice a week (Wednesday and Friday). On the other three days training sessions are carried out.
On the training days the rats are given either solvent or 8-OH-DPAT 15 minutes before being tested.
On the test days the rats receive the chemical substance 60 minutes before the session.
The capacity of the chemical substance administered to induce a response (pressing on the "solvent" or "drug" (8-OH-DPAT ) lever ) is recorded.
7 animals chosen at random are used for each substance and for each dose. During the test period, the lever on which the rat first presses 10 times is determined as the lever chosen--a food pellet is then delivered. That selected lever will be reinforced by the delivery of food up to the end of the test session. The percentage of animals selecting the "drug" lever at a particular dose is calculated. In addition, the total number of responses carried out on the two levers is expressed as a percentage of the number of responses carried out on the "solvent" lever obtained on the occasion of a preceding training session.
(§2) The doses of the compounds tested are all expressed in base terms. Unless specified otherwise, all of the compounds were dissolved in sterile water (to which if necessary a few drops of lactic acid were added) and administered at a volume of 1 ml/kg s.c.

5HT1A receptors [2] = target: T1, 5HT1A receptors; assay: In vitro binding test, 5HT1A receptors ([3H]-8-OH-DPAT, hippocampus membranes); parameters: The hippocampus of the brains of decapitated rats was immediately frozen; from tissue; host or cells: hippocampus membranes of male Wistar rats; species or system rat (male Wistar); conditions: rat hippocampus; [3H]-8-OH-DPAT 0.4 nM; 30 min at 25° C; read-out: AFFINITY (pKi) (converted)
Method: as §1
The hippocampus of the brains of decapitated rats was immediately frozen on solid carbon dioxide and then kept at -80° C. until preparation of the membranes. The tissue was homogenised at 4° C. in the appropriate buffer using a Polytron (Brinkman Instruments, Lucerne, Switzerland) and centrifuged at 20,000 revs/min.
Incubation was carried out for 30 minutes at 25° C. Non-specific binding was established by […] of 5HT. The tests were terminated by rapid filtration using a Brandel harvester through glass fibre filters pretreated with 0.1% polyethylene imine.
The IC50 values were determined in accordance with process 8 of Tallarida R. J. and Murray R. B., Manual of Pharmacological calculations with computer programs, Springer Verlag, New York, (1987).
The pKi was calculated in accordance with the following formula: [formula] wherein [L] is the concentration of the hot ligand (^[3] H-8-OH-DPAT, 0.4 nM) and Kd is the apparent dissociation constant determined from the saturation experiments.
The substances studied were dissolved in the incubation buffer.
Binding of 5HT1A receptors

5HT1A receptors [3] = target: T1, 5HT1A receptors; assay: Flat body posture (FBP), agonist (alone) and antagonist (vs 8-OH-DPAT); assay type: in vivo, rat (male Wistar); parameters: from tissue; host or cells: whole living male Wistar rats (endogenous receptor); conditions: for ED50: rat, sc
Method: as §1
The animals are isolated individually for the tests for hypothermia, corticosterone secretion and flat body posture, or combined in groups of three for the tailflick test.
The compounds to be studied were administered by the subcutaneous route (s.c.) 60 minutes before the beginning of the test, that is to say 30 minutes before the solvent (agonist responses) or the 8-OH-DPAT (antagonist responses).
In all of the tests the solvent is used in parallel as a control. The animals were left to rest in their cage during the period between the injections and the evaluation. For the agonist studies, the solvent was administered at 1 ml/kg s.c. 30 minutes before the beginning of the test. For the antagonist studies, doses of 8-OH-DPAT that induce sub-maximal responses were chosen, that is doses of 0.63, 0.16, 0.16 and 0.16 mg/kg s.c. for, respectively, the tail flick test, flat body posture test, corticosterone secretion test and hypothermia test.
The same animals were used to evaluate the influence of the compounds studied on FBP and on the determination of the plasma concentration of CS. All of the tests were carried out in the morning between 10.30 and 12.300 that is to say when the circadian levels of CS are lowest.
25 minutes after the treatment (that is to say 5 minutes before decapitation) the animals are observed in their cages and the presence or absence of FBP is noted.
The presence of FBP is defined by a characteristic posture of the animal. That posture is in the ventral decubitus position with the posterior limbs clearly extended. 5 minutes after the observation of FBP, the animals are decapitated and the blood from the trunk is collected in cooled tubes containing 50 μl of a 10% EDTA solution. After centrifugation at 4000 revs/min, the plasma is removed and stored at -30° C. until determination.
In general, after variance analysis, the results are subjected to the Dunett test. The results are taken as significant if p <0.05.
For the dose-response for the induction and inhibition of FBP, the ED50 values (doses at which 50% of the animals show a response) were calculated by the Litchfield and Wilcoxon method.
as §2

## c1cc2c(c(N3CCN(CCCc4ccsc4)CC3)c1)OCCO2 [Example 1, 4-(Benzodioxan-5-yl)-1-[3-(thiophen-3-yl)propyl]piperazine]
5HT1A receptors [1]; antagonist, vs 8-OH-DPAT, read-out: DD 8-OH-DPAT ID50 (95% CL) + DPAT
  ED50: 0.63 mg/kg
5HT1A receptors [1]; compound alone, 60 min before session, read-out: DD 8-OH-DPAT ED50 (95% CL) alone
  ED50: > 2.5 mg/kg
5HT1A receptors [1]; vs 8-OH-DPAT
  % MPA (% maximum possible antagonism), DD: 100%
5HT1A receptors [2]
  Ki: 1.74 nM
5HT1A receptors [3]; agonist test, compound alone s.c., read-out: FBP ED50 (95% CL) alone
  ED50: > 10 mg/kg
5HT1A receptors [3]; antagonist test, s.c., vs 8-OH-DPAT 0.16 mg/kg s.c., read-out: FBP ID50 (95% CL) + DPAT
  ED50: 0.48 mg/kg
5HT1A receptors [3]; vs 8-OH-DPAT 0.16 mg/kg s.c.
  % MPA (% maximum possible antagonism), FBP: 100%
